Source: patent publication US9969766B2, “20(R)-ginsenoside Rg3 polyacylated derivatives, preparation and application thereof” (priority 2014, dated 2018)

Columns and labels:
[1] = system: human breast cancer Bcap-37 cells; test: Human breast cancer Bcap-37 subcutaneous inoculation in nude mice; settings: po × 14bid
Description: human breast cancer Bcap-37 model, human lung cancer A549 model, human intestinal cancer LOVO model, human stomach cancer MGC model and human liver cancer QGY model, with tumor cell lines being of the second generation or more, mouse B16 melanoma cell line, mouse Lewis lung cancer model, mouse sarcoma s180 model, all passaged and preserved in Pharmacological Division of Shanghai Institute of Pharmaceutical Industry. 3. Experiment Animals Origins: nude mice, 6-week old, 18-22 g/mouse, provided by Laboratory Animal Center of Chinese Academy of Sciences, Shanghai Branch, with certification No. 2001A032. C57BL/6 mice and Kunming mice, 18-22 g/mouse, provided by Laboratory Animal Center of Chinese Academy of Sciences, Shanghai Branch, with certification SYXK (Shanghai) 2004-0015. Gender: male or female, the same gender for each batch in experiment Animal numbers: 10 mice and 10 nude mice for each of positive control group and test group in experiment, and 20 for negative control group. 4. Experiment Design Dose Settings: doses for 20(R)-ginsenoside Rg3 octo-acetate, 20(R)-ginsenoside Rg3 octo-n-butyrate and 20(R)-ginsenoside Rg3 octo-n-propionate were set as high-dose group (0.3 mg/kg/d), medium-dose group (0.06 mg/kg/d), and low-dose group (0.012 mg/kg/d). Dosage regimen: oral administration, twice daily. human tumor model and cell-inoculated mouse model: po×14 bid; mouse tumor-inoculated model: po×10 bid. Control Trial: negative control group: given with the same volume of 5% CMC-Na as the test group, and the same dosage regimen as the test group. positive control group: […] 5. Experiment Method and Key Steps 5.1 Anti-Tumor Test 5.1.1 Subcutaneous Inoculation Model
(§1) Tumor cells of vigorous growth stage were taken under sterile condition and made into cell suspensions of about 1-2×10^7/ml by homogenization, the suspensions were inoculated subcutaneously at 0.2 ml/mouse in host mice and repeated on the next day according to the experiment design, the animals in each group were slaughtered after about three weeks, the tumors were collected and weighed, and the tumor inhibition rates were calculated according to the following equation: tumor inhibition rate %=[(average tumor weight of control group-average tumor weight of treatment group)/average tumor weight of control group]×100%
The same operation was repeated in human tumor xenograft model, except that the feed, packing, cage and contact instruments were all sterilized under high pressure before use and the nude mice were fed in a laminar flow rack. The tumors and tumor-bearing animal weight gains were dynamically measured (tumor size measured using caliper: long diameter/a, short diameter/b, and tumor bulk=a×b^2/2).

mouse melanoma B16 cells = test: Mouse melanoma B16 tail vein inoculation, lung metastasis; settings: po × 14bid
Description: (§2) human breast cancer Bcap-37 model, human lung cancer A549 model, human intestinal cancer LOVO model, human stomach cancer MGC model and human liver cancer QGY model, with tumor cell lines being of the second generation or more, mouse B16 melanoma cell line, mouse Lewis lung cancer model, mouse sarcoma s180 model, all passaged and preserved in Pharmacological Division of Shanghai Institute of Pharmaceutical Industry. 3. Experiment Animals Origins: nude mice, 6-week old, 18-22 g/mouse, provided by Laboratory Animal Center of Chinese Academy of Sciences, Shanghai Branch, with certification No. 2001A032. C57BL/6 mice and Kunming mice, 18-22 g/mouse, provided by Laboratory Animal Center of Chinese Academy of Sciences, Shanghai Branch, with certification SYXK (Shanghai) 2004-0015. Gender: male or female, the same gender for each batch in experiment Animal numbers: 10 mice and 10 nude mice for each of positive control group and test group in experiment, and 20 for negative control group. 4. Experiment Design Dose Settings: doses for 20(R)-ginsenoside Rg3 octo-acetate, 20(R)-ginsenoside Rg3 octo-n-butyrate and 20(R)-ginsenoside Rg3 octo-n-propionate were set as high-dose group (0.3 mg/kg/d), medium-dose group (0.06 mg/kg/d), and low-dose group (0.012 mg/kg/d). Dosage regimen: oral administration, twice daily. human tumor model and cell-inoculated mouse model: po×14 bid; mouse tumor-inoculated model: po×10 bid. Control Trial: negative control group: given with the same volume of 5% CMC-Na as the test group, and the same dosage regimen as the test group. positive control group: Cyclophosphamide CTX 30 mg/kg, MMC 2 mg/kg and 5Fu 30 mg/kg by intraperitoneal or intravenous administration, once daily, for seven consecutive days. 5. Experiment Method and Key Steps 5.1 Anti-Tumor Test 5.1.1 Subcutaneous Inoculation Model

mouse sarcoma S180 cells = test: Mouse sarcoma S180 metastasis model; settings: po × 14bid
Description: as §2

mouse Lewis lung cancer = test: Mouse Lewis lung cancer (subcutaneous inoculation) metastasis model; settings: po × 14bid
Description: as §2, §1

[2] = system: human stomach cancer MGC cells; test: Human stomach cancer MGC in-situ inoculation, survival; settings: for Animal body weight (g) Start / Animal body weight (g) end / Average survival (d) X ± SD / Life extension rate T/C × %: po × 14bid
Description: as §2

[3] = system: human lung cancer A549 cells; test: Human lung cancer A549 (subcutaneous inoculation) metastasis model; settings: po × 14bid

CC(=O)OC[C@H]1O[C@@H](OC2CC[C@]3(C)C(CC[C@@]4(C)C3C[C@H](OC(C)=O)C3C([C@@](C)(O)CCC=C(C)C)CC[C@@]34C)C2(C)C)[C@H](OC2O[C@H](COC(C)=O)[C@@H](OC(C)=O)[C@H](OC(C)=O)[C@H]2OC(C)=O)[C@@H](OC(C)=O)[C@@H]1OC(C)=O (stereo partly drawn) [Rg3-octo-acetate, 20 (R)-ginsenoside Rg3 octaacetate]
Tumor inhibition rate % ([1]; 0.012 mg/kg/d): 47.93% | Tumor weight (g) X ± SD ([1]; 0.012 mg/kg/d): 0.672 ± 0.07 g | Tumor inhibition rate % ([1]; 0.06 mg/kg/d): 59.69% | Tumor weight (g) X ± SD ([1]; 0.06 mg/kg/d): 0.520 ± 0.08 g | Tumor inhibition rate % ([1]; 0.3 mg/kg/d): 68.98% | Tumor weight (g) X ± SD ([1]; 0.3 mg/kg/d): 0.400 ± 0.09 g | Anti-metastasis rate % (mouse melanoma B16 cells; 0.012 mg/kg/d): 50.90% | Lung clone numbers (mice) X ± SD (mouse melanoma B16 cells; 0.012 mg/kg/d): 23.62 ± 7.0 | Anti-metastasis rate % (mouse melanoma B16 cells; 0.06 mg/kg/d): 63.87% | Lung clone numbers (mice) X ± SD (mouse melanoma B16 cells; 0.06 mg/kg/d): 17.38 ± 7.1 | Anti-metastasis rate % (mouse melanoma B16 cells; 0.3 mg/kg/d): 79.98% | Lung clone numbers (mice) X ± SD (mouse melanoma B16 cells; 0.3 mg/kg/d): 9.63 ± 7.9 | Anti-metastasis rate % (mouse sarcoma S180 cells; 0.012 mg/kg/d): 51.50% | Lung clone numbers (mice) X ± SD (mouse sarcoma S180 cells; 0.012 mg/kg/d): 1.43 ± 7.1 | Anti-metastasis rate % (mouse sarcoma S180 cells; 0.06 mg/kg/d): 65.80% | Lung clone numbers (mice) X ± SD (mouse sarcoma S180 cells; 0.06 mg/kg/d): 1.01 ± 7.2 | Anti-metastasis rate % (mouse sarcoma S180 cells; 0.3 mg/kg/d): 78.94% | Lung clone numbers (mice) X ± SD (mouse sarcoma S180 cells; 0.3 mg/kg/d): 0.62 ± 7.3 | Anti-metastasis rate % (mouse Lewis lung cancer; 0.012 mg/kg/d): 50.30% | Lung clone numbers (mice) X ± SD (mouse Lewis lung cancer; 0.012 mg/kg/d): 1.38 ± 0.13 | Anti-metastasis rate % (mouse Lewis lung cancer; 0.06 mg/kg/d): 58.90% | Lung clone numbers (mice) X ± SD (mouse Lewis lung cancer; 0.06 mg/kg/d): 1.14 ± 0.12 | Anti-metastasis rate % (mouse Lewis lung cancer; 0.3 mg/kg/d): 69.96% | Lung clone numbers (mice) X ± SD (mouse Lewis lung cancer; 0.3 mg/kg/d): 0.84 ± 0.15 | Animal body weight (g) Start ([2]; 0.012 mg/kg/d): 19.8 g | Animal body weight (g) end ([2]; 0.012 mg/kg/d): 25.4 g | Average survival (d) X ± SD ([2]; 0.012 mg/kg/d): 38.84 ± 0.14 days | Life extension rate T/C × % ([2]; 0.012 mg/kg/d): 170.56% | Animal body weight (g) Start ([2]; 0.06 mg/kg/d): 19.6 g | Animal body weight (g) end ([2]; 0.06 mg/kg/d): 24.6 g | Average survival (d) X ± SD ([2]; 0.06 mg/kg/d): 41.21 ± 0.11 days | Life extension rate T/C × % ([2]; 0.06 mg/kg/d): 180.98% | Animal body weight (g) Start ([2]; 0.3 mg/kg/d): 19.7 g | Animal body weight (g) end ([2]; 0.3 mg/kg/d): 24.1 g | Average survival (d) X ± SD ([2]; 0.3 mg/kg/d): 46.04 ± 0.12 days | Life extension rate T/C × % ([2]; 0.3 mg/kg/d): 202.19% | life-prolonging effect versus positive control group ([2]; high-dose groups, summary of Table 7-9: human stomach, intestinal and liver cancer): better than the positive control group | Anti-metastasis rate % ([3]; 0.012 mg/kg/d): 49.91% | Lung clone numbers (mice) X ± SD ([3]; 0.012 mg/kg/d): 0.96 ± 0.12 | Anti-metastasis rate % ([3]; 0.06 mg/kg/d): 57.90% | Lung clone numbers (mice) X ± SD ([3]; 0.06 mg/kg/d): 0.81 ± 0.15 | Anti-metastasis rate % ([3]; 0.3 mg/kg/d): 68.52% | Lung clone numbers (mice) X ± SD ([3]; 0.3 mg/kg/d): 0.84 ± 0.13
